From paper PMC8860869 (Chemical research in toxicology, 2022)

Experiments:
Test in all cases: cross-linking in cells, immunoblot
Type in all cases: cell-based
Details in all cases: covalent; living yeast, toxic concentrations
[1] = target: T1, Eug1 (Saccharomyces cerevisiae, UniProt P32474)
T1 sequence (P32474 30-517): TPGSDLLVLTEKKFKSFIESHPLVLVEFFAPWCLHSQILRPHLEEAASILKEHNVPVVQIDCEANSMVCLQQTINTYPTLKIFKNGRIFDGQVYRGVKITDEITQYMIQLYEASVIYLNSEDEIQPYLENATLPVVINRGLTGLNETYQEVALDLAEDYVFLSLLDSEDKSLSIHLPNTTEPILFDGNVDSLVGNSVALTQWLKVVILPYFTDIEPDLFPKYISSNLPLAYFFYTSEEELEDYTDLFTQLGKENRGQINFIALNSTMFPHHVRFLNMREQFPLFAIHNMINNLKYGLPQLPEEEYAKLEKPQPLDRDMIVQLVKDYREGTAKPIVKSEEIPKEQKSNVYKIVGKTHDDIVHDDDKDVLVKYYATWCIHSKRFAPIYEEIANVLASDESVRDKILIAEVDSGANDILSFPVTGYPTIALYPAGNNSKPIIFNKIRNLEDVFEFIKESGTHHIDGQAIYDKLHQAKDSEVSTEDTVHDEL

[2] = target: T2, Mpd1 (Saccharomyces cerevisiae, UniProt Q12404)
T2 sequence (Q12404 22-318): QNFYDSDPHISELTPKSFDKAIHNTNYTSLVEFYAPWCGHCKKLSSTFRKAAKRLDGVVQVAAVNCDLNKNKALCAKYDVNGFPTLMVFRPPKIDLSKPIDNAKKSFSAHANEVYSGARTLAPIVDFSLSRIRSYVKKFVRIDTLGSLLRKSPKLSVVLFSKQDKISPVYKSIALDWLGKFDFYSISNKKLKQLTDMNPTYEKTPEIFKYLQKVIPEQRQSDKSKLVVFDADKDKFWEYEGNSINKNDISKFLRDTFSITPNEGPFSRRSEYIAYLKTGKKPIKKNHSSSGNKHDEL

[3] = target: T3, Pdi1 (Saccharomyces cerevisiae, UniProt P17967)
T3 sequence (P17967 29-522): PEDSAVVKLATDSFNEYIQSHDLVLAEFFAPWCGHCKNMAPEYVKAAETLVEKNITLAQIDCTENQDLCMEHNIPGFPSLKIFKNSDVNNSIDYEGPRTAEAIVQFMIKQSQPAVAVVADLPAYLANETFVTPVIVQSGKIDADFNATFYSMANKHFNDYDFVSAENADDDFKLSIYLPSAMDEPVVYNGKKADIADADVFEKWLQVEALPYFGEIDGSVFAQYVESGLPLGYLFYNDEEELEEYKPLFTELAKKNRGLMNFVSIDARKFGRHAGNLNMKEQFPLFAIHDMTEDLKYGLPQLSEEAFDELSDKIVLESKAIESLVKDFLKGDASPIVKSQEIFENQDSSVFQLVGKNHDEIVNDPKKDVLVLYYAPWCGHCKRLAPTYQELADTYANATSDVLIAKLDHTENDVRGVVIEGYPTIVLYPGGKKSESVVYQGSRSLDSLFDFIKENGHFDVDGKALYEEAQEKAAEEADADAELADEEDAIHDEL

[4] = target: T4, Mpd2 (Saccharomyces cerevisiae, UniProt Q99316)
T4 sequence (Q99316 23-277): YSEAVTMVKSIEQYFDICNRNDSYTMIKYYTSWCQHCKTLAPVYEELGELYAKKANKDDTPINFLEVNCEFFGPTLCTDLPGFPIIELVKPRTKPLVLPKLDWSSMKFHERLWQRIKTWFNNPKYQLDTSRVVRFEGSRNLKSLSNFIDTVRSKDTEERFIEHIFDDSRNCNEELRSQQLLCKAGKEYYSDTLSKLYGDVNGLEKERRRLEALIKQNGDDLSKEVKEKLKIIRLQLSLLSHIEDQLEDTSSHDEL

## C1OC1C1CO1 (stereo not shown) [1,2,3,4-diepoxybutane]
[1]
  cross-linking in cells, immunoblot: Each of these proteins also underwent protein cross-linking in cells treated with toxic concentrations
[2]
  cross-linking in cells, immunoblot: Each of these proteins also underwent protein cross-linking in cells treated with toxic concentrations
[3]
  cross-linking in cells, immunoblot: Each of these proteins also underwent protein cross-linking in cells treated with toxic concentrations
[4]
  cross-linking in cells, immunoblot: Each of these proteins also underwent protein cross-linking in cells treated with toxic concentrations
